From patent publication US20100197752A1, “UROCANIC ACID DERIVATIVES USEFUL FOR THE TREATMENT OF IMMUNE-RELATED AND INFLAMMATORY DISEASES” (priority 2007, published 2010)

Legend:
BALB/c mice = assay: Suppression of prolonged contact hypersensitivity (P-CHS), oxazolone-induced ear swelling; assay type: in vivo; settings: for sequence from high to low effectiveness, suppressive effect on P-CHS response (ear swelling): BALB/c mice, oxazolone, topical twice daily, averaged from 2-3 experiments, compared to placebo (100% ear swelling), FIG. 3; for immunosuppressive, e.g. anti-inflammatory properties (efficacy): conclusion from P-CHS in BALB/c mice, topical application
Procedure: Suppression of prolonged contact hypersensitivity (P-CHS) by ethyl imidazole-4-acetate in BALB/c mice.
Ethyl imidazole-4-acetate was dissolved in ethanol/water 1:1 in a concentration of 5%. The topical application of ethanol/water 1:1 alone served as full-response control. Ethanol/water test solutions were topically applied with a pipette in aliquots of 20 μL/ear.
Mice were sensitized with 10 μl 1% oxazolone in acetone on […] in all experiments on the outside of both ears. On day 0 mice were challenged with 10 μl 0.5% oxazolone in acetone on both ears. Repeated elicitations were applied on day 2, 4, 7, 9. Applied oxazolone concentrations in acetone were 0.5%, 0.25%, 0.25%, 0.25%, respectively. From day 1 up to one day before the final day of the experiment, twice-daily doses of test solutions were topically given at approximately 11 AM and […]. Duplicate ear thickness measurements were made on day 0, 1, 3, 5, 8, 10 and 11 prior to any daily topical application.
The use of mice was allowed by the Committee of Experimental Animal handling of the Academic Medical Center Amsterdam. Female BALB/c mice (8-10 weeks of age) were purchased from Charles River (L′Arbresle, France) and kept in light, humidity and temperature-controlled rooms in the animal facility, 1-2 weeks before the experiment. They were fed ad libitum with water and CRM-E food van Special Diets services (SDS, Witham, Essex, UK).
Data points, obtained with test compound administration, were compared to the data, obtained with vehicle (ethanol/water 1:1) administration and were statistically processed using Welch's unpaired t-test.

[1] = system: IL-10 production in whole blood; assay: Effect of imidazole-derivates on the production of IL-10 in whole blood following LPS stimulation; assay type: cell-based; settings: LPS stimulation (10 ng/ml), FIG. 4; for IL-10 production: 10−^4 Mol/l in whole blood
From the text: Effect of imidazole-derivates on the production of IL-10
IL-10 is a cytokine that dims inflammatory immune responses. […] These findings in vitro have larger significance in a complete test system as whole blood, employed here, than in a monoculture test system (FIG. 4).
FIG. 4. Effect of imidazole-derivates on the production of IL-10 in whole blood

mice = settings: Kammeyer et al. 2004, Norval et al. 1995, Noonan and De Fabo 1992; cited from earlier work

Compound | sequence from high to low effectiveness, suppressive effect on P-CHS response (ear swelling) (BALB/c mice) | immunosuppressive, e.g. anti-inflammatory properties (efficacy) (BALB/c mice) | IL-10 production [1] | IL-10 production, positive control compared with the imidazole-derivates ([1]; whole blood) | contact hypersensitivity (CHS) response (mice)
CCOC(=O)Cc1c[nH]cn1 [Et-ImAc, ethyl imidazole-4-acetate] | prednisolone>ethyl imidazole-4-acetate (Et-ImAc)>imidazole-4-acetic acid (ImAc) | stronger than that of ImAc | upregulation of IL-10 |  | 
O=C(O)c1c[nH]cn1 [ImCOOH, imidazole-4-carboxylic acid] |  |  | upregulation of IL-10 |  | 
C[C@]12C=CC(=O)C=C1CC[C@@H]1[C@@H]2[C@@H](O)C[C@@]2(C)[C@H]1CC[C@]2(O)C(=O)CO [prednisolone] | prednisolone>ethyl imidazole-4-acetate (Et-ImAc) | classical strong suppressant |  |  | 
O=C([O-])c1c[nH]cn1.[Na+] [imidazole-4-carboxylic acid, imidazole-4-carboxylic acid, sodium salt] | imidazole-4-acetic acid (ImAc)=imidazole-4-carboxylic acid |  |  |  | 
NCCc1c[nH]cn1 [Histamine] |  |  |  | stronger effect on IL-10 production than the imidazole-derivates | 
O=C(O)Cc1c[nH]cn1 [ImAc, Imidazole-4-acetic acid] | ethyl imidazole-4-acetate (Et-ImAc)>imidazole-4-acetic acid (ImAc)=imidazole-4-carboxylic acid | weak to moderate immunosuppressant | upregulation of IL-10 |  | suppress the contact hypersensitivity (CHS) response in mice
